Data taken from patent US7879825B2, “Derivatives of [2-(8,9-dioxo-2,6-diazabicyclo[5.2.0]non-1(7)-en-2-yl)alkyl] phosphonic acid and methods of use thereof” (Wyeth LLC, priority 2003, dated 2011).
Marks after values point to notes of the source that are not given here.

Assays:
[1] = test system: PGE2-induced thermal hypersensitivity; assay: Reversal of prostaglandin E2 (PGE2)-induced thermal hypersensitivity, warm-water tail withdrawal; assay type: in vivo, Sprague-Dawley rats; conditions: single oral (PO) dose before PGE2 injection into tail, assessed 30 min after PGE2, SEM in parentheses
Description: The compounds of the present invention were evaluated for their effectiveness to treat pain. […] The test methods used herein have been used by others skilled in the art to evaluate the effectiveness of compounds for relieving pain. See e.g., Bennett G J and Xie T K, A peripheral mononeuropathy in rat produces disorders of pain sensation like those seen in man, Pain 33: 87-107 (1988); Chaplan S R, Bach […], Chung J M and Yaksh T L, Quantitative assessment of tactile allodynia in the rat paw, J. Neurosci. Methods 53: 55-63 (1994); and Mosconi T and Kruger L, Fixed-diameter polyethylene cuffs applied to the rat sciatic nerve induce a painful neuropathy: ultrastructural morphometric analysis of axonal alterations Pain 64: 37-57 (1996). Individually housed Sprague-Dawley rats had free access to rat chow and water. A 12-h light/12-h dark cycle was in effect (lights on from 6:00 am to 6:00 pm). Animal maintenance and research were conducted in accordance with the guidelines provided by the National Institutes of Health Committee on Laboratory Animal Resources. These subjects were used in the tests below. The terminal 10 cm of the tail was placed into a thermos bottle containing water warmed to 38, 42, 46, 50 or 54° C. The latency in seconds for the animal to remove the tail from the water was used as a measure of nociception. […] Temperature-effect curves were generated before (baseline) and 30 minutes after the PGE2 injection. […] The ability of compounds to reverse PGE2-induced thermal hypersensitivity was assessed using a single dose time-course procedure. […] sensitivity was assessed 30 min after PGE2 injection. Data Analysis-The temperature that produced a half-maximal increase in the tail-withdrawal latency (i.e., T10) was calculated from each temperature-effect curve. The T10 was determined by interpolation from a line drawn between the point above and the point below 10 sec on the temperature-effect curve.

melting point | Structure (SMILES) | Reversal of PGE2-induced thermal hypersensitivity, % MPE (±1 SEM) ([1]; 10 mg/kg) | Reversal of PGE2-induced thermal hypersensitivity, % MPE (±1 SEM) ([1]; 30 mg/kg)
– | O=c1c2c(c1=O)N(CCP(=O)(O)O)CCCN2 [Comparative 1, [2-(8,9-dioxo-2,6-diazabicyclo[5.2.0]non-1(7)-en-2-yl)ethyl]phosphonic acid, reference compound] | −4.7 (10.6)** % MPE | 44 (9.5) % MPE
– | O=C(OCOP(=O)(CCN1CCCNc2c1c(=O)c2=O)OCOC(=O)c1ccccc1)c1ccccc1 [Example 1, 3-{2-[8,9-Dioxo-2,6-diazabicyclo[5.2.0]non-1(7)-en-2-yl]ethyl}-3-oxido-7-oxo-7-phenyl-2,4,6-trioxa-3-phosphahept-1-yl benzoate] | 57.2 (4.7) % MPE | 81 (3.4) % MPE
– | CCCC(CCC)C(=O)OCOP(=O)(CCN1CCCNc2c1c(=O)c2=O)OCOC(=O)C(CCC)CCC [Example 2, 3-{2-[8,9-Dioxo-2,6-diazabicyclo[5.2.0]non-1(7)-en-2-yl]ethyl}-3-oxido-7-oxo-8-propyl-2,4,6-trioxa-3-Phosphaundec-1-yl 2-propylpentanoate] | 45.6 (13.9) % MPE | 76.5 (3.3) % MPE
– | CC(C)(C)C(=O)OCOC(CCN1CCCNc2c1c(=O)c2=O)(O[PH2]=O)OC(=O)C(C)(C)C (stereo not shown) [Example 3, 2,2-Dimethyl-propionic acid (2,2-dimethyl-propionyloxymethoxy)-[2-(8,9-dioxo-2,6-diaza-bicyclo[5.2.0]non-1(7)-en-2-yl)-ethyl]-phosphinoyloxymethyl ester] | – | 87.6 (3.3) % MPE
– | CC(OC(=O)C1CCCCC1)OP(=O)(CCN1CCCNc2c1c(=O)c2=O)OC(C)OC(=O)C1CCCCC1 (stereo not shown) [Example 4, 7-Cyclohexyl-3-{2-[8,9-dioxo-2,6-diazabicyclo[5.2.0]non-1(7)-en-2-yl]ethyl}-1,5-dimethyl-3-oxido-7-oxo-2,4,6-trioxa-3-phosphahept-1-yl cyclohexanecarboxylate] | – | 78.9 (5.8) % MPE
– | CC(OC(=O)C1CCCCC1)OP(=O)(CCN1CCCNc2c1c(=O)c2=O)OC(C)OC(=O)C1CCCCC1 (stereo not shown) [Example 5, 7-cyclohexyl-3-{2-[8,9-dioxo-2,6-diazabicyclo[5.2.0]non-1(7)-en-2-yl]ethyl}-1,5-dimethyl-3-oxido-7-oxo-2,4,6-trioxa-3-phosphahept-1-yl cyclohexanecarboxylate] | – | 55.9 (9.8) % MPE
64 to 65 °C | O=C(OCOP(=O)(CCN1CCCNc2c1c(=O)c2=O)OCOC(=O)C1CCCCC1)C1CCCCC1 [Example 6, 7-Cyclohexyl-3-{2-[8,9-dioxo-2,6-diazabicyclo[5.2.0]non-1(7)-en-2-yl]ethyl}-3-oxido-7-oxo-2,4,6-trioxa-3-phosphahept-1-yl cyclohexanecarboxylate] | – | 16.8 (6.8) % MPE
– | CC(C)OC(=O)OCOP(=O)(CCN1CCCNc2c1c(=O)c2=O)OCOC(=O)OC(C)C [Example 7, [2-(8,9-Dioxo-2,6-diaza-bicyclo[5.2.0]non-1-(7)-en-2-yl)-ethyl]-phosphonic acid diiso propoxycarbonyloxymethyl ester] | 47.0 (12.6) % MPE | 77.5 (6.7) % MPE
